Measured values reported in patent US9481674B1, “Dihydropyrrolopyridine inhibitors of ROR-gamma” (Vitae Pharmaceuticals, Inc., priority 2016, dated 2016).

Legend:
[1] = target: T1, recombinant RORγ Ligand Binding Domain (LBD) protein (Homo sapiens, UniProt P51449); test: Radio-Ligand RORγ Binding Assay (Assay 1); conditions: cell-free competition with 25-hydroxy[26,27-3H]-cholesterol; read-out: RORγ Binding Ki Range* (nM) (Assay 1)
T1 construct: 6×His; GST
T1 sequence (P51449 269-508 limits assumed): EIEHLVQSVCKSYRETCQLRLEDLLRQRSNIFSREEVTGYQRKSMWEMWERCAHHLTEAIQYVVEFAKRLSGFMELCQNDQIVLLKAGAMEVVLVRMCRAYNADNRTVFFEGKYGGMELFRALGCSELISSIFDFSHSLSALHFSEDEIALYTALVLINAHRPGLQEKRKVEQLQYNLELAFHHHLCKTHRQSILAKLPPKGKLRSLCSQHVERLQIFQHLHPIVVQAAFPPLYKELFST
Protocol: Radio-Ligand RORγ Binding Assay (Assay 1)
The plate was shaken at 700 rpm for 20 min and incubated for 10 min at rt, after which 40 μL of poly-Lys YSi SPA beads (PerkinElmer, Cat. # RPNQ0010) were added to achieve 50 μg of the beads per well. The plate was incubated on an orbital shaker for 20 min and then for 10 min without agitation at rt. SPA signal for tritium beta radiation was registered on PerkinElmer Microbeta plate reader.

[2] = target: T2, full-length RORγt in Jurkat cells (Homo sapiens, UniProt P51449)
T2 sequence (P51449 1-497 isoform P51449-2): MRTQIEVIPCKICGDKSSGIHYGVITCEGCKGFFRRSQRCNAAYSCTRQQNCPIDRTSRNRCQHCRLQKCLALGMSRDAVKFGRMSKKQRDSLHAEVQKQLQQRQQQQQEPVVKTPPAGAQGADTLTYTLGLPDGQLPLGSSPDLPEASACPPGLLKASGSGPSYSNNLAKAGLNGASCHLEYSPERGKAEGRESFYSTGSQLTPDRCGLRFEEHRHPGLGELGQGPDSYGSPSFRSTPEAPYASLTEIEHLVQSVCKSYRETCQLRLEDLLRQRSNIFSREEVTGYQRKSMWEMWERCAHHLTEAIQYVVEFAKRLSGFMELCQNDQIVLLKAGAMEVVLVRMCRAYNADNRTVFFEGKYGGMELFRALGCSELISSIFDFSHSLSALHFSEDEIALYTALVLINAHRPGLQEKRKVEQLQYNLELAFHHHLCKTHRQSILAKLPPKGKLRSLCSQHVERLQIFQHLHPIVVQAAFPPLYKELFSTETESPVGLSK
Protocol: ROR ? t 5×RORE Assay in Jurkat Cells (Assay 2)
Compounds of the present invention were tested for RORγ inverse agonist activity in a cell-based, transcriptional activity assay. […] Luciferase activity in the conditioned supernatants was determined with NanoGlo® assay reagents (Promega, Cat.# N1130).

IL-17A production = test: Human Whole Blood Assay (Assay 3); assay type: cell-based; conditions: IL-17A, 50% blood/media, CytoStim, 48 h, read-out: 50% Human Whole Blood Assay IC50, nM* (Assay 3)
Protocol: Human Whole Blood Assay (Assay 3)
Compounds of the invention were tested in the human whole blood assay to measure their effects on IL-17A production as determined by cytokine secretion into 50% blood/media supernatant. Mixtures of sodium heparinized whole blood (isolated from healthy human donors) and the T cell activator CytoStim, in the presence or absence of compound, were plated in sterilized, tissue culture-treated 24-well plates. Specifically, the mixtures in each well were as follows: (1) 500 μL of whole blood, (2) 250 μL of compound diluted into RPMI-1640 media containing 10% HyClone™ FCS (Thermo Fisher Scientific, Waltham, Mass.), Gibco® Pen/Strep and Gibco® NEAA (Life Technologies, Grand Island, N.Y.), and (3) 250 μL of CytoStim (Miltenyi Biotech, Germany) diluted to a final concentration of 10 μL/mL in complete cell culture medium.
IL-17A cytokine expression was determined using 25 μL of the transferred supernatant diluted with 25 μL of Diluent 43 from the Human IL-17A V-PLEX™ kit (cat. # K151RFD-4, Meso Scale Discovery, Rockville, Md.). The assay was performed according to the manufacturer's instructions using included reagents. The IL-17A V-PLEX™ plates were read using the Meso Scale Discovery Imager (Model 1200).

Structure (SMILES) | Ki [1] [nM] | IC50 [2] [µM] | IC50 (IL-17A production) [nM]
CCS(=O)(=O)c1ccc([C@H](CO)NC(=O)c2cnc3c(c2)CN(C[C@@H]2CC[C@@H](C(F)(F)F)CO2)[C@H]3C(C)C)cc1 (single isomer, unassigned) [Compound 14] | < 100 | – | < 100
CCS(=O)(=O)c1ccc([C@H](CO)NC(=O)c2cnc3c(c2)CN(C[C@@H]2CC[C@@H](C(F)(F)F)OC2)[C@H]3C(C)C)cc1 (single isomer, unassigned) [Compound 2] | < 100 | – | < 100
CCS(=O)(=O)c1ccc([C@H](CO)NC(=O)c2cnc3c(c2)CN(C[C@H]2CC[C@H](C(F)(F)F)CC2)[C@H]3C(C)C)nc1 [Compound 45] | – | – | > 200
CCS(=O)(=O)c1ccc(C(C)(CO)NC(=O)c2cnc3c(c2)CN(C[C@H]2CC[C@H](C(F)(F)F)CC2)[C@H]3C(C)C)cc1 (stereo partly shown) [Compound 7] | < 100 | 0.1 to 1 | –
CCS(=O)(=O)c1ccc([C@@H](CO)NC(=O)c2cnc3c(c2)CN(C[C@H]2CC[C@H](C(F)(F)F)CC2)[C@H]3C(C)C)nc1 [Compound 44] | – | – | > 200
CCS(=O)(=O)c1ccc([C@H](CO)NC(=O)c2cnc3c(c2)CN(C[C@H]2CC[C@H](C(F)(F)F)OC2)[C@H]3C(C)C)cc1 (single isomer, unassigned) [Compound 5] | < 100 | < 0.1 | < 100
CCS(=O)(=O)c1ccc([C@H](NC(=O)c2cnc3c(c2)CN(C[C@H]2CC[C@H](C(F)(F)F)CC2)[C@H]3C(C)C)[C@H](C)O)cc1 (single isomer, unassigned) [Compound 39] | < 100 | – | 100 to 200
CCO[C@H]1CC[C@H](CN2Cc3cc(C(=O)N[C@@H](CO)c4ccc(S(=O)(=O)CC)cc4)cnc3[C@@H]2C(C)C)CC1 [Compound 43] | < 100 | < 0.1 | –
CCS(=O)(=O)c1ccc(C(C)(CO)NC(=O)c2cnc3c(c2)CN(C[C@H]2CC[C@H](C(F)(F)F)CC2)[C@@H]3C(C)C)cc1 (stereo partly shown) [Compound 9] | 100 to 1000 | – | –
CCS(=O)(=O)c1ccc([C@@H](NC(=O)c2cnc3c(c2)CN(C[C@H]2CC[C@H](C(F)(F)F)CC2)[C@H]3C(C)C)[C@@H](C)O)cc1 (single isomer, unassigned) [Compound 42] | < 100 | – | > 200
CCS(=O)(=O)c1ccc([C@H](CO)NC(=O)c2cnc3c(c2)CN(C[C@@H]2CC[C@@H](C(F)(F)F)OC2)[C@H]3C(C)C)nc1 (single isomer, unassigned) [Compound 1] | < 100 | – | < 100
CCS(=O)(=O)c1ccc([C@H](CO)NC(=O)c2cnc3c(c2)CN(C[C@@H]2CC[C@H](C(F)(F)F)CO2)[C@H]3C(C)C)cc1 (single isomer, unassigned) [Compound 18] | < 100 | – | –
CCS(=O)(=O)c1ccc([C@H](CO)NC(=O)c2cnc3c(c2)CN(C[C@H]2CC[C@@H](C(F)(F)F)CO2)[C@H]3C(C)C)cc1 (single isomer, unassigned) [Compound 21] | < 100 | – | –
CCS(=O)(=O)c1ccc([C@H](CO)NC(=O)c2cnc3c(c2)CN(C)[C@H]3Cc2ccccc2)cc1 [Compound 35] | 100 to 1000 | – | –
CCS(=O)(=O)c1ccc([C@H](CO)NC(=O)c2cnc3c(c2)CN(CC(F)(F)F)[C@H]3Cc2ccccc2)cc1 [Compound 22] | < 100 | < 0.1 | –
CCS(=O)(=O)c1ccc([C@H](CO)NC(=O)c2cnc3c(c2)CN(CC(F)(F)F)[C@@H]3Cc2ccccc2)cc1 [Compound 19] | < 100 | 0.1 to 1 | –
CCS(=O)(=O)c1ccc([C@H](CO)NC(=O)c2cnc3c(c2)CN(C[C@H]2CC[C@H](C(F)(F)F)CO2)[C@H]3C(C)C)cc1 (single isomer, unassigned) [Compound 15] | < 100 | – | –

The remaining lines, values ahead:

Ki [1] [nM] | IC50 [2] [µM] | IC50 (IL-17A production) [nM] | Structure (SMILES)
100 to 1000 | – | – | CCS(=O)(=O)c1ccc([C@H](CO)NC(=O)c2cnc3c(c2)CN(C[C@H]2CC[C@H](C(F)(F)F)CC2)[C@@H]3Cc2ccccc2)cc1 [Compound 40]
< 100 | < 0.1 | – | CCS(=O)(=O)c1ccc([C@H](CO)NC(=O)c2cnc3c(c2)CN(C[C@H]2CC[C@H](C(F)(F)F)CC2)[C@H]3CC2CCOCC2)cc1 [Compound 27]
> 1000 | – | – | CCS(=O)(=O)c1ccc([C@H](CO)NC(=O)c2cnc3c(c2)CN(C[C@H]2CC[C@H](C(F)(F)F)CC2)[C@@H]3C)cc1 [Compound 28]
< 100 | < 0.1 | – | CCS(=O)(=O)c1ccc([C@H](CO)NC(=O)c2cnc3c(c2)CN(C[C@H]2CC[C@H](C(F)(F)F)CC2)[C@H]3C2CCOCC2)cc1 [Compound 31]
< 100 | – | – | CC[C@H]1c2ncc(C(=O)N[C@@H](CO)c3ccc(S(=O)(=O)CC)cc3)cc2CN1C[C@@H]1CC[C@@H](C(F)(F)F)OC1 (single isomer, unassigned) [Compound 11]
< 100 | – | < 100 | CC[C@H]1c2ncc(C(=O)N[C@@H](CO)c3ccc(S(=O)(=O)CC)cc3)cc2CN1C[C@H]1CC[C@H](C(F)(F)F)OC1 (single isomer, unassigned) [Compound 10]
< 100 | < 0.1 | – | CCS(=O)(=O)c1ccc([C@H](CO)NC(=O)c2cnc3c(c2)CN(C[C@H]2CC[C@H](C(F)(F)F)CC2)[C@H]3Cc2ccccc2)cc1 [Compound 37]
< 100 | > 1 | – | CC(C)[C@H]1c2ncc(C(=O)N[C@@H](CO)c3ccc(S(C)(=O)=O)cc3)cc2CN1C[C@H]1CC[C@@H](C(F)(F)F)CC1 [Compound 8]
< 100 | 0.1 to 1 | – | CCS(=O)(=O)c1ccc([C@H](CO)NC(=O)c2cnc3c(c2)CN(C[C@H]2CC[C@H](C(F)(F)F)CC2)[C@H]3C)cc1 [Compound 26]
< 100 | < 0.1 | > 200 | CCS(=O)(=O)c1ccc([C@@H](CO)NC(=O)c2cnc3c(c2)CN(C[C@H]2CC[C@H](C(F)(F)F)CC2)[C@H]3C(C)C)cc1 [Compound 47]
– | – | < 100 | CC[C@H]1c2ncc(C(=O)N[C@@H](CO)c3ccc(S(=O)(=O)CC)cc3)cc2CN1C[C@H]1CC[C@H](C(F)(F)F)CC1 [Compound 41, (S)-7-ethyl-N—((R)-1-(4-(ethylsulfonyl)phenyl)-2-hydroxyethyl)-6-((trans-4-(trifluoromethyl)cyclohexyl)methyl)-6,7-dihydro-5H-pyrrolo[3,4-b]pyridine-3-carboxamide]
< 100 | < 0.1 | < 100 | CCS(=O)(=O)c1ccc([C@H](CO)NC(=O)c2cnc3c(c2)CN(C[C@H]2CC[C@H](C(F)(F)F)CC2)[C@H]3C(C)C)cc1 [Compound 46, (S)—N—((R)-1-(4-(ethylsulfonyl)phenyl)-2-hydroxyethyl)-7-isopropyl-6-((trans-4-(trifluoromethyl)cyclohexyl)methyl)-6,7-dihydro-5H-pyrrolo[3,4-b]pyridine-3-carboxamide]
< 100 | < 0.1 | – | CCS(=O)(=O)c1ccc([C@H](CO)NC(=O)c2cnc3c(c2)CN(C[C@H]2CC[C@H](C(F)(F)F)CC2)C3C(F)(F)F)cc1 (stereo partly shown) [Compound 23]
